Laboratory results: PubChem BioAssay (NCI)
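Step 1: Grow cells in 96-well plates. Step 2: Expose to compound for 48 hours at 5 concentrations. Step 3: Interpolate endpoints linearly; if unreached, use highest concentration. TGI is the concentration that stops growth completely.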

How the values were obtained:
Test in all cases: NCI anticancer screen, dose series, 48 h
A549 NSCLC = system: A549 NSCLC
HCC-2998 colon = system: HCC-2998 colon
MDA-MB-435 = system: MDA-MB-435
HL-60(TB) leukemia = system: HL-60(TB) leukemia
NCI/ADR-RES ovarian = system: NCI/ADR-RES ovarian
UO-31 renal = system: UO-31 renal
SK-OV-3 ovarian = system: SK-OV-3 ovarian
ACHN renal = system: ACHN renal
SW-620 colon = system: SW-620 colon
COLO 205 colon = system: COLO 205 colon
OVCAR-8 ovarian = system: OVCAR-8 ovarian
U251 CNS = system: U251 CNS
CAKI-1 renal = system: CAKI-1 renal
MOLT-4 leukemia = system: MOLT-4 leukemia
MDA-N = system: MDA-N
SF-295 CNS = system: SF-295 CNS
KM12 colon = system: KM12 colon
SK-MEL-28 melanoma = system: SK-MEL-28 melanoma
UACC-257 melanoma = system: UACC-257 melanoma
M14 melanoma = system: M14 melanoma
SK-MEL-5 melanoma = system: SK-MEL-5 melanoma
TK-10 renal = system: TK-10 renal
RXF 393 renal = system: RXF 393 renal
MDA-MB-231 breast = system: MDA-MB-231 breast
SN12C renal = system: SN12C renal
EKVX NSCLC = system: EKVX NSCLC
786-0 renal = system: 786-0 renal
SNB-75 CNS = system: SNB-75 CNS
MALME-3M melanoma = system: MALME-3M melanoma
SNB-19 CNS = system: SNB-19 CNS
SK-MEL-2 melanoma = system: SK-MEL-2 melanoma
T-47D breast = system: T-47D breast
OVCAR-3 ovarian = system: OVCAR-3 ovarian
NCI-H460 lung = system: NCI-H460 lung
A498 renal = system: A498 renal
HT29 colon = system: HT29 colon
OVCAR-5 ovarian = system: OVCAR-5 ovarian
UACC-62 melanoma = system: UACC-62 melanoma
SR leukemia = system: SR leukemia
HOP-62 NSCLC = system: HOP-62 NSCLC
IGROV1 ovarian = system: IGROV1 ovarian
HCT-15 colon = system: HCT-15 colon
NCI-H226 lung = system: NCI-H226 lung
SF-539 CNS = system: SF-539 CNS
OVCAR-4 ovarian = system: OVCAR-4 ovarian
HCT-116 colon = system: HCT-116 colon
K-562 leukemia = system: K-562 leukemia
CCRF-CEM leukemia = system: CCRF-CEM leukemia
DU-145 prostate = system: DU-145 prostate
NCI-H23 lung = system: NCI-H23 lung
PC-3 prostate = system: PC-3 prostate
LOX IMVI melanoma = system: LOX IMVI melanoma
NCI-H522 lung = system: NCI-H522 lung
SF-268 CNS = system: SF-268 CNS
MCF7 breast = system: MCF7 breast
HOP-92 NSCLC = system: HOP-92 NSCLC
RPMI-8226 leukemia = system: RPMI-8226 leukemia

O=C(O)c1cccc(S(=O)(=O)NN2C(=O)CSC2c2c(O)ccc3ccccc23)c1 (stereo unspecified)
TGI (A549 NSCLC): > 100 µM
TGI (HCC-2998 colon): > 100 µM
TGI (MDA-MB-435): > 100 µM
TGI (HL-60(TB) leukemia): 59.8 µM
TGI (NCI/ADR-RES ovarian): 76.9 µM
TGI (UO-31 renal): > 100 µM
TGI (SK-OV-3 ovarian): > 100 µM
TGI (ACHN renal): > 100 µM
TGI (SW-620 colon): 65.7 µM
TGI (COLO 205 colon): > 100 µM
TGI (OVCAR-8 ovarian): 15.7 µM
TGI (U251 CNS): > 100 µM
TGI (CAKI-1 renal): 68 µM
TGI (MOLT-4 leukemia): 46.3 µM
TGI (MDA-N): > 100 µM
TGI (SF-295 CNS): 94.9 µM
TGI (KM12 colon): > 100 µM
TGI (SK-MEL-28 melanoma): 79.2 µM
TGI (UACC-257 melanoma): > 100 µM
TGI (M14 melanoma): > 100 µM
TGI (SK-MEL-5 melanoma): 62.5 µM
TGI (TK-10 renal): > 100 µM
TGI (RXF 393 renal): 89.1 µM
TGI (MDA-MB-231 breast): > 100 µM
TGI (SN12C renal): > 100 µM
TGI (EKVX NSCLC): > 100 µM
TGI (786-0 renal): > 100 µM
TGI (SNB-75 CNS): > 100 µM
TGI (MALME-3M melanoma): 90.6 µM
TGI (SNB-19 CNS): 87 µM
TGI (SK-MEL-2 melanoma): > 100 µM
TGI (T-47D breast): 80.5 µM
TGI (OVCAR-3 ovarian): 62.5 µM
TGI (NCI-H460 lung): > 100 µM
TGI (A498 renal): 46.2 µM
TGI (HT29 colon): 69.2 µM
TGI (OVCAR-5 ovarian): > 100 µM
TGI (UACC-62 melanoma): 66.4 µM
TGI (SR leukemia): 59.6 µM
TGI (HOP-62 NSCLC): > 100 µM
TGI (IGROV1 ovarian): 45.1 µM
TGI (HCT-15 colon): > 100 µM
TGI (NCI-H226 lung): > 100 µM
TGI (SF-539 CNS): 55.8 µM
TGI (OVCAR-4 ovarian): 83 µM
TGI (HCT-116 colon): 38.5 µM
TGI (K-562 leukemia): > 100 µM
TGI (CCRF-CEM leukemia): 46.4 µM
TGI (DU-145 prostate): > 100 µM
TGI (NCI-H23 lung): 51.1 µM
TGI (PC-3 prostate): > 100 µM
TGI (LOX IMVI melanoma): 60 µM
TGI (NCI-H522 lung): 77.6 µM
TGI (SF-268 CNS): 91.5 µM

O=NNc1c[nH]c(=O)[nH]c1=O
TGI (A549 NSCLC): > 100 µM
TGI (HCC-2998 colon): > 100 µM
TGI (MDA-MB-435): > 100 µM
TGI (HL-60(TB) leukemia): > 100 µM
TGI (NCI/ADR-RES ovarian): > 100 µM
TGI (UO-31 renal): > 100 µM
TGI (SK-OV-3 ovarian): > 100 µM
TGI (ACHN renal): > 100 µM
TGI (SW-620 colon): > 100 µM
TGI (COLO 205 colon): > 100 µM
TGI (OVCAR-8 ovarian): > 100 µM
TGI (U251 CNS): > 100 µM
TGI (CAKI-1 renal): > 100 µM
TGI (MOLT-4 leukemia): > 100 µM
TGI (MDA-N): > 100 µM
TGI (SF-295 CNS): > 100 µM
TGI (MCF7 breast): > 100 µM
TGI (KM12 colon): > 100 µM
TGI (SK-MEL-28 melanoma): > 100 µM
TGI (UACC-257 melanoma): > 100 µM
TGI (M14 melanoma): > 100 µM
TGI (SK-MEL-5 melanoma): > 100 µM
TGI (TK-10 renal): > 100 µM
TGI (RXF 393 renal): > 100 µM
TGI (MDA-MB-231 breast): > 100 µM
TGI (SN12C renal): > 100 µM
TGI (EKVX NSCLC): > 100 µM
TGI (786-0 renal): > 100 µM
TGI (SNB-75 CNS): > 100 µM
TGI (HOP-92 NSCLC): > 100 µM
TGI (MALME-3M melanoma): > 100 µM
TGI (SNB-19 CNS): > 100 µM
TGI (SK-MEL-2 melanoma): > 100 µM
TGI (T-47D breast): > 100 µM
TGI (OVCAR-3 ovarian): > 100 µM
TGI (RPMI-8226 leukemia): > 100 µM
TGI (A498 renal): > 100 µM
TGI (UACC-62 melanoma): > 100 µM
TGI (HOP-62 NSCLC): > 100 µM
TGI (IGROV1 ovarian): > 100 µM
TGI (HCT-15 colon): > 100 µM
TGI (NCI-H226 lung): > 100 µM
TGI (SF-539 CNS): > 100 µM
TGI (OVCAR-4 ovarian): > 100 µM
TGI (HCT-116 colon): > 100 µM
TGI (K-562 leukemia): > 100 µM
TGI (CCRF-CEM leukemia): > 100 µM
TGI (DU-145 prostate): > 100 µM
TGI (NCI-H23 lung): > 100 µM
TGI (PC-3 prostate): > 100 µM
TGI (LOX IMVI melanoma): > 100 µM
TGI (NCI-H522 lung): > 100 µM
